Assay: In vitro release rate modulation across electrostatically gated nanofluidic membrane
Conditions: active phases, gate voltage −1.5 V, vs passive phases (0 V); sink 0.01×PBS
Experimental: Release modulation experiments were performed with a custom made, two reservoirs fixture comprising of a macro cuvette (sink reservoir) and a drug reservoir. The cuvette was glued with UV epoxy (OG116, Epoxy Technologies, Inc.) to a PMMA (McMaster Carr, Douglasville, Ga.) membrane holder. The drug reservoir (500 μL capacity), made of PMMA, was secured to the membrane holder through 2 SS316L M3 screws. The membrane under testing was clamped between the two PMMA pieces, with 2 O-rings (2418T113, McMaster Carr, Douglasville, Ga.) to avoid solution leakage. The reservoir was capped with a silicone plugs (9277K87, McMaster Carr, Douglasville, Ga.).
Release modulation experiments were performed using 300 nm membranes with both poly-Si and SiC deposition. […]
The assembled diffusion fixtures were then loaded in a robotic carousel^20, which is connected to a Cary 50 UV-vis spectrophotometer (Agilent Technologies). Absorbance measurements of the sink reservoir were automatically performed every 5 minutes. […]
Graphs were plotted and statistical data analyses were performed with GraphPad Prism 8 (version 8.1.1; GraphPad Software, Inc., La Jolla, Calif.). […] Statistical significance was determined using paired t-tests. […]

Alexa Fluor 647 [AF647]
reduction of release rate: 60%
